For the assay, the system named is Plasmodium berghei. Put plainly: Luciferase/luciferin-expressing antifolate-resistant parasites were used to infect a culture of HepG2 cells that were pre-incubated with compounds. Infected hepatocytes emit light due to the luciferase reaction. Assay results are presented as the percent inhibition of light emission compared to control. […]. It counts as functional. Conditions: sporozoite; for IC90: read-out: LUCIFERASE INFECTION ASSAY - IC90.

Where [1] appears, read: read-out: LUCIFERASE INFECTION ASSAY - IC50.

IC50 and IC90 data for 38 molecules are collected here from ChEMBL document CHEMBL4483862, “Open-source discovery of chemical leads for next-generation chemoprotective antimalarials” (2018).

Each structure is given as a SMILES string.

By IC50 is commonly meant the concentration that inhibits the measured activity by half. Usually IC90 stands for the concentration needed for an effect of 90%. For the molecule `CN(C)c1ccc(-c2cc3c(Nc4ccc5c(c4)OCO5)nccc3n2C)cc1`, the IC90 was determined as 3.98 µM. Further, the IC50 (HEPG2TOX_HILL_SLOPE 12.1, HEPG2TOX_R_SQUARED 0.137, PBLUC_HILL_SLOPE 13.7, PBLUC_R_SQUARED 0.564, read-out: LUCIFERASE INFECTION ASSAY - IC50) worked out at 3.39 µM.
For the molecule `CC(C)CCn1c(=O)c2ccccc2n2c(SCCS(=O)(=O)c3ccc(Cl)cc3)nnc12`, the IC90 was greater than 10 µM. The IC50 (HEPG2TOX_HILL_SLOPE 1.35, HEPG2TOX_R_SQUARED 0.511, PBLUC_HILL_SLOPE 2.98, PBLUC_R_SQUARED 0.427, read-out: LUCIFERASE INFECTION ASSAY - IC50) was 7.28 µM.
As to `CC(C)Cc1ccc(C(C)c2nn3c(-c4cccnc4)nnc3s2)cc1` (stereo unspecified), the IC90 was found to be 5.44 µM. Further, under “HEPG2TOX_HILL_SLOPE 0.365, HEPG2TOX_R_SQUARED 0.691, PBLUC_HILL_SLOPE 1.54, PBLUC_R_SQUARED 0.896, read-out: LUCIFERASE INFECTION ASSAY - IC50”, the IC50 was determined as 1.31 µM.
As to `CC(=O)Nc1cccc(-c2cn3c(-c4ccc5ncccc5c4)cnc3cn2)c1`, the IC90 was greater than 8.7 µM. Also, where the note is “PBLUC_HILL_SLOPE 2.19, PBLUC_R_SQUARED 0.526, read-out: LUCIFERASE INFECTION ASSAY - IC50”, the IC50 is 5.14 µM.
For `CCOc1cc(/C=C2\CSc3c(F)cccc3C2=O)cc(Cl)c1O`, the IC90 was greater than 10 µM. Moreover, the IC50 (PBLUC_HILL_SLOPE 15.8, PBLUC_R_SQUARED 0.377, read-out: LUCIFERASE INFECTION ASSAY - IC50) was found to be 9.68 µM.
Regarding `COc1cccc(C(=O)Nc2cccc(Nc3ccc(-c4cccc(NC(C)=O)c4)cn3)c2)c1`, the IC90 was greater than 7.29 µM. Besides, the IC50 under setting [1] is greater than 7.29 µM.
With `Cc1onc(-c2c(F)cccc2Cl)c1C(=O)Nc1ccc(Sc2ccccc2)nc1Sc1ccccc1`, the IC90 came to 2.15 µM. Under setting [1], the IC50 came out at 0.182 µM.
In the case of `CCC(C(=O)Nc1nc(C)c(Cc2ccc3c(c2)OCO3)s1)c1ccccc1` (stereo unspecified), the IC90 was greater than 10 µM. In addition, the IC50 under setting [1] is greater than 10 µM.
For the molecule `CNc1nnc(Sc2ncnc3ccsc23)s1`, the IC90 was 9.41 µM. In addition, the IC50 (PBLUC_HILL_SLOPE 11, PBLUC_R_SQUARED 0.35, read-out: LUCIFERASE INFECTION ASSAY - IC50) was determined as 7.71 µM.
For `CCc1cc2c(Nc3ccc4c(c3)OCO4)nc(C)nc2s1`, the IC90 was greater than 10 µM. The IC50 (PBLUC_HILL_SLOPE 2.79, PBLUC_R_SQUARED 0.532, read-out: LUCIFERASE INFECTION ASSAY - IC50) was found to be 6.73 µM.
Consider `CCCCc1noc(C(C)Sc2nc(C(C)(C)C)nc3c2c(=O)n(C)c(=O)n3C)n1` (stereo unspecified), for which the IC90 was greater than 10 µM. The IC50 (HEPG2TOX_HILL_SLOPE 1.13, HEPG2TOX_R_SQUARED 0.608, PBLUC_HILL_SLOPE 1.15, PBLUC_R_SQUARED 0.641, read-out: LUCIFERASE INFECTION ASSAY - IC50) was found to be 3.92 µM.
For `CCCCOc1ccc(/C=C/C(=O)NNC(=O)Cc2nc3ccccc3n2C)cc1OCC`, the IC90 worked out at 9.1 µM. The IC50 (HEPG2TOX_HILL_SLOPE 2.18, HEPG2TOX_R_SQUARED 0.787, PBLUC_HILL_SLOPE 13.4, PBLUC_R_SQUARED 0.401, read-out: LUCIFERASE INFECTION ASSAY - IC50) stood at 7.73 µM.
As for `CC1CCc2sc(C(=O)N/N=C/c3ccc(Cl)cc3Cl)cc2C1` (stereo unspecified), the IC90 is 5.01 µM. The IC50 (HEPG2TOX_HILL_SLOPE 2.35, HEPG2TOX_R_SQUARED 0.954, PBLUC_HILL_SLOPE 8.15, PBLUC_R_SQUARED 0.258, read-out: LUCIFERASE INFECTION ASSAY - IC50) was 3.82 µM.
For the molecule `COC(=O)c1c(NC(=O)c2ccoc2)c2cc(NC(C)CC(F)(F)F)cnc2n1CC(C)C` (stereo unspecified), the IC90 was greater than 7.07 µM. Also, the IC50 under setting [1] was greater than 7.07 µM.
For the molecule `N#Cc1ccccc1OC(=O)Nc1ccc(OC(F)(F)F)cc1`, the IC90 stood at 3.62 µM. Under setting [1], the IC50 is 3.31 µM.
Take `O=C(/C=C/c1ccccc1[N+](=O)[O-])OCc1nc2ccccc2s1`: the IC90 is greater than 10 µM. Further, the IC50 (PBLUC_HILL_SLOPE 15.4, PBLUC_R_SQUARED 0.138, read-out: LUCIFERASE INFECTION ASSAY - IC50) is greater than 10 µM.
On to `CC(CCc1ccccc1)Nc1ccc(S(N)(=O)=O)cc1[N+](=O)[O-]` (stereo unspecified), for which the IC90 was greater than 10 µM. Besides, where the note is “HEPG2TOX_HILL_SLOPE 0.279, HEPG2TOX_R_SQUARED 0.54, PBLUC_HILL_SLOPE 1.88, PBLUC_R_SQUARED 0.412, read-out: LUCIFERASE INFECTION ASSAY - IC50”, the IC50 was 8.69 µM.
`CCCNC(=O)c1csc(C(O)c2ccc(C(C)(C)C)cc2)n1` (stereo unspecified): the IC90 was greater than 10 µM. Further, the IC50 (HEPG2TOX_HILL_SLOPE 2.18, HEPG2TOX_R_SQUARED 0.794, read-out: LUCIFERASE INFECTION ASSAY - IC50) is greater than 10 µM.
For the molecule `COc1ccc(CNc2nc3cnc(Nc4ccc(F)c(Cl)c4)cc3n2C)cc1OC`, the IC90 is greater than 10 µM. For the same molecule, the IC50 under setting [1] is greater than 10 µM.
In the case of `O=C(Nc1ccc(CNc2ncnc3cc(Cl)ccc23)cc1)C1CC1`, the IC90 is 1.46 µM. The IC50 under setting [1] worked out at 0.544 µM.
On to `O=C(Nc1nc2ccc(SC(F)F)cc2s1)c1ccc(Cl)nc1`, for which the IC90 is greater than 10 µM. Also, the IC50 (HEPG2TOX_HILL_SLOPE 12.1, HEPG2TOX_R_SQUARED 0.0104, read-out: LUCIFERASE INFECTION ASSAY - IC50) is greater than 10 µM.
As to `CCCCCCCCNC(=O)/C(C#N)=C/c1ccc(C)cc1C`, the IC90 is greater than 10 µM. Under setting [1], the IC50 was greater than 10 µM.
For the molecule `COc1ccc(-c2cnc3cnc(-c4ccc(O)cc4)cn23)cc1`, the IC90 is greater than 10.4 µM. Moreover, under “HEPG2TOX_HILL_SLOPE 3.68, HEPG2TOX_R_SQUARED 0.904, PBLUC_HILL_SLOPE 3.01, PBLUC_R_SQUARED 0.439, read-out: LUCIFERASE INFECTION ASSAY - IC50”, the IC50 amounted to 5.92 µM.
On to `O=C(Cn1ncc(Cl)c(Cl)c1=O)Nc1ccc(OCc2ccccc2)cc1`, for which the IC90 is greater than 10 µM. Besides, the IC50 under setting [1] is greater than 10 µM.
On to `COc1cc(Nc2nc3cnc(-c4cccnc4)cc3n2C)cc(OC)c1OC`, for which the IC90 was greater than 10 µM. The IC50 under setting [1] worked out at 8.65 µM.
For `Clc1nc(-c2ccccn2)nc2scc(-c3ccccc3)c12`, the IC90 amounted to 1.68 µM. For the same molecule, the IC50 (HEPG2TOX_HILL_SLOPE 0.933, HEPG2TOX_R_SQUARED 0.89, PBLUC_HILL_SLOPE 8.14, PBLUC_R_SQUARED 0.197, read-out: LUCIFERASE INFECTION ASSAY - IC50) amounted to 1.28 µM.
As for `COC(=O)c1ccc(NC(=O)c2ccc(-c3cccc(Br)c3)nc2C)s1`, the IC90 was greater than 10 µM. In addition, the IC50 (PBLUC_HILL_SLOPE 7.52, PBLUC_R_SQUARED 0.673, read-out: LUCIFERASE INFECTION ASSAY - IC50) amounted to 9.09 µM.
Take `O=C(c1nn(-c2ccccc2)c(=O)c2ccccc12)N1CCN(C2CCS(=O)(=O)C2)CC1` (stereo unspecified): the IC90 was greater than 10 µM. For the same molecule, under setting [1], the IC50 is greater than 10 µM.
As for `COc1ccc(OC)c(/C=c2\s/c(=C(/C#N)c3nnc4n3CCCCC4)n(-c3ccccc3)c2=O)c1`, the IC90 is greater than 10 µM. Moreover, under “PBLUC_HILL_SLOPE 2.48, PBLUC_R_SQUARED 0.654, read-out: LUCIFERASE INFECTION ASSAY - IC50”, the IC50 came to 4.74 µM.
In the case of `CC(=O)c1c(C)[nH]c(C(=O)OCC(=O)/C=C2\N(C)c3ccccc3C2(C)C)c1C`, the IC90 is greater than 10 µM. Besides, the IC50 (HEPG2TOX_HILL_SLOPE 1.65, HEPG2TOX_R_SQUARED 0.38, PBLUC_HILL_SLOPE 17.8, PBLUC_R_SQUARED 0.202, read-out: LUCIFERASE INFECTION ASSAY - IC50) turned out to be 9.63 µM.
In the case of `COc1cccc(/C=C(\c2nc3ccccc3[nH]2)c2nc3ccccc3s2)c1`, the IC90 was greater than 10 µM. The IC50 under setting [1] was greater than 10 µM.
As for `Cn1cc(CN2CC=C(c3ccccc3)CC2)c2ccccc21`, the IC90 is greater than 10 µM. For the same molecule, the IC50 (HEPG2TOX_HILL_SLOPE 7.11, HEPG2TOX_R_SQUARED 0.283, PBLUC_HILL_SLOPE 12.5, PBLUC_R_SQUARED 0.246, read-out: LUCIFERASE INFECTION ASSAY - IC50) turned out to be 9.52 µM.
In the case of `CCOc1ccc(CN2CCN(C(=O)Cc3c(C)nn(C)c3C)CC2)cc1`, the IC90 is greater than 10 µM. Further, the IC50 (PBLUC_HILL_SLOPE 2.6, PBLUC_R_SQUARED 0.21, read-out: LUCIFERASE INFECTION ASSAY - IC50) was greater than 10 µM.
Regarding `CN1CCN(c2ccc(-c3cn4c(-c5cccc(O)c5)cnc4cn3)cn2)CC1`, the IC90 was greater than 8.54 µM. Also, the IC50 (PBLUC_HILL_SLOPE 4.85, PBLUC_R_SQUARED 0.265, read-out: LUCIFERASE INFECTION ASSAY - IC50) came to 7.18 µM.
In the case of `CC(C)C(C)NC(=O)CSc1nnc(CC2CCCC2)[nH]1` (stereo unspecified), the IC90 was greater than 10 µM. Moreover, under setting [1], the IC50 was greater than 10 µM.
For the molecule `O=C(OCCSc1ccc([N+](=O)[O-])c2nonc12)c1cccc(C(F)(F)F)c1`, the concentration for an effect of 90% (IC90) is greater than 7.98 µM. Besides, the IC50 (FFLUC_HILL_SLOPE 3.07, FFLUC_R_SQUARED 0.747, HEPG2TOX_HILL_SLOPE 10.3, HEPG2TOX_R_SQUARED 0.666, PBLUC_HILL_SLOPE 2.08, PBLUC_R_SQUARED 0.429, read-out: LUCIFERASE INFECTION ASSAY - IC50) is 3.94 µM.
On to `COc1cccc(CN2CCN3C(C(=O)Nc4cccc(OC(F)(F)F)c4)=COC3=NC2=O)c1`, for which the IC90 is greater than 10 µM. The IC50 (HEPG2TOX_HILL_SLOPE 0.751, HEPG2TOX_R_SQUARED 0.867, PBLUC_HILL_SLOPE 2.96, PBLUC_R_SQUARED 0.388, read-out: LUCIFERASE INFECTION ASSAY - IC50) is 6.84 µM.
`CCCC(=O)Nc1ccc(C(=O)C(C)SC2=NN/C(=C3\C=Nc4ccccc43)N2c2ccc(OCC)cc2)cc1` (stereo unspecified): the IC90 is greater than 10 µM. For the same molecule, for the setting “PBLUC_HILL_SLOPE 9.99, PBLUC_R_SQUARED 0.53, read-out: LUCIFERASE INFECTION ASSAY - IC50”, the IC50 was 8.08 µM.
